For data set [1] the following is noted: pH 3.
For data set [2] the following is noted: oncology indications; cited from earlier work.
The conditions of data set [3]: human, in vivo.
Protocol: In some embodiments, dosing regimens contemplated herein comprise administering daily an amount of RAD001 ranging from about 0.015 mg to about 0.1 mg.
Data set [4] has as its system respiratory tract infections. Nature of the data set: Respiratory tract infections during the 6 weeks of study drug treatment. The format is in vivo, human. As to conditions: BEZ235 10 mg daily. On the procedure:
(Top) The percentage of subjects in each cohort who reported having one or more respiratory tract infections during the 6 weeks they were treated with study drug is shown. (Bottom) The percentage of subjects who experienced respiratory tract infections of moderate severity during the 6 weeks they were treated with study drug is shown. No subjects in the study experienced respiratory tract infections that were assessed as severe. The numbers on top of each bar indicate the percent change relative to placebo.
The rate of infections during the 6 weeks subjects were treated with study drug was also examined. The main infections that occurred during the 6 weeks of study drug treatment were respiratory tract infections.

Data set [5] addresses mTORC1 (Homo sapiens, UniProt P42345). Conditions: very low concentration; cited from earlier work.
Data set [6] relates to immune system and interferon-induced gene expression in whole blood. Nature of the data set: RNAseq gene expression profiling and pathway enrichment analysis in whole blood, baseline vs after 6 weeks of treatment. Conditions: for Up-regulated genes: Tukey outlier of log 2(FC post- vs pre-treatment); for Mean FC Genes In Pathway: whole blood, post- vs pre-treatment (6 weeks). The data set is classed as in vivo, Homo sapiens. On the procedure:
Peripheral venous blood samples were collected into PAXgene Blood RNA tubes. Total RNA was purified from PAXgene collected blood and the quality and yield of the isolated RNA assessed using an Agilent 2100 Bioanalyzer (Agilent Technologies, Santa Clara, Calif., USA). RNA-Seq libraries were prepared from the RNA using the Illumina TruSeq Stranded Total RNA with the Ribo-Zero Globin Kit. This kit performed the removal of ribosomal RNA and globin mRNA in a single step. The obtained libraries were sequenced using the Illumina HiSeq2500 platform in paired-end mode to a read length of 2×76 base-pairs (bp). Images from the instrument were processed using the manufacturer's software to generate FASTQ sequence files. Read quality was assessed by running FastQC (version 0.10) on the FASTQ files. […] An average of 100 million 76 bp paired-end reads per sample were mapped to the Homo sapiens genome (version GRCh38) and RefSeq UCSC was used for human gene and transcript annotation. An in-house gene quantification pipeline was used to determine the number of counts mapping to each gene (Schuierer, S. & Roma, G. The exon quantification pipeline (EQP): a comprehensive approach to the quantification of gene, exon and junction expression from RNA-seq data. Nucleic acids research (2016)). On average, 88% of the total reads were mapped to the genome or the transcripts, and 30% of the aligned reads mapped to expressed sequences. […] Any gene with an average expression of less than one count per million in any treatment/time condition was considered undetectable and removed from further analysis. Count data for remaining genes was then normalized in R Statistical Computing Software (v3.1.3) using the voom normalization procedure located in the limma package (Law, C W, Chen, Y, Shi, W, and Smyth, G K (2014). Voom: precision weights unlock linear model analysis tools for RNA-seq read counts. Genome Biology 15, […]). […] Thus, we included the value of this principle component as an adjustment for technical variation in subsequent analysis. For each gene, the following linear mixed model was fit to the voom-normalized expression data, adjusting for relevant covariates (age, gender, and BMI) as well as PC1 using SAS v9.3 software. • proc mixed […]; • class SubjID Day Trt Gender; • model log 2[…] Age Gender Bmi/solution DDFM=KenwardRoger; • repeated Day/type=un subject=SubjID; • by gene; where log 2exprs refers to the voom-normalized expression measurement; Day refers to the timepoint the sample was taken (pre- or post-dose); Trt refers to the treatment group of the subject; PC1 refers to the value of PC1 for that sample; Age refers to the age of the subject; Gender refers to the sex of the subject; Bmi refers to the body mass index of the subject; and SubjID refers to the ID of the subject. Differential expression fold changes and p-values were obtained using the SAS estimate statement. […] These gene expression signatures consisted of the post-vs pre-treatment fold change and p-values for each treatment. […] Canonical pathways (c2.cp.v5.0.entrez.gmt) were downloaded from the canonical signatures database (http://software.broadinstitute.org/gsea/msigdb/). Signatures were defined as described in the “RNASeq Differential Expression Analysis” section. For each pathway and treatment response signature, a weighted KS test was performed as previously described (Subramanian et al. Gene set enrichment analysis: A knowledge-based approach for interpreting genome-wide expression profiles. Proc. Nat. Acad.

The conditions of data set [7]: human, in vivo, 10 mg.
Data set [8] addresses mTORC1 and mTORC2 (Homo sapiens, UniProt P42345). As to conditions: low concentration; cited from earlier work.
Data set [9] has as its system PI3K/mTOR. Conditions: relatively higher concentrations; cited from earlier work.
Data set [10] deals with tooth or gum infections. Nature of the data set: Tooth or gum infections during one year after study drug administration.
Protocol: A total of 264 elderly volunteers ≥65 years of age, without unstable medical conditions, were enrolled in a randomized double blind placebo-controlled trial. […] Subjects were treated for 6 weeks with study drug and, after a 2 week drug-free interval, were given a 2014 seasonal influenza vaccine (Fluvax®, CSL Biotherapies). […] The subjects were then followed for another 9 months off study drug.
As an additional assessment of immune function, the overall infection rate in each treatment group was assessed by having subjects record any infections they experienced during the year following the initiation of study drug treatment in a diary that was reviewed by study investigators at each study visit.
For data set [11], the system named is urinary tract infections. Description: Urinary tract infections during one year after study drug administration. The data set is classed as in vivo, human.
Data set [12] relates to infections. Description: Overall infection rate recorded by diary during the year following initiation of study drug. Conditions: elderly >=65 years. The data set is classed as in vivo, human.
Where [13] appears, read: REACTOME_INTERFERON_ALPHA_BETA_SIGNALING
[14] abbreviates: REACTOME_INTERFERON_GAMMA_SIGNALING

Entries after “also recorded” stand apart in the source; their conditions may differ.

For the compound `Cn1c(=O)n(-c2ccc(C(C)(C)C#N)cc2)c2c3cc(-c4cnc5ccccc5c4)ccc3ncc21` [BEZ235, 2-methyl-2-[4-(3-methyl-2-oxo-8-quinolin-3-yl-2,3-dihydro-imidazo[4,5-c]quinolin-1-yl)-phenyl]-propionitrile], the solubility entry in data set [1] was “low”. Besides, the maximum tolerated dose in data set [2] is recorded as 1200 mg daily. Also, the tolerability entry in data set [3] is listed as “well tolerated”. Also, in data set [4], the “incidence and severity of respiratory tract infections during the 6 weeks subjects were treated with study drug” value was “reduction”. The “concentration at which mTORC1 inhibition predominates” value in data set [5] is “less than or equal to 10 nmol/L”. The Up-regulated genes entry in data set [6] (REACTOME_CYTOKINE_SIGNALING_IN_IMMUNE_SYSTEM, listed as Bez) was “IFITM3; FCGR1A; FCGR1B; HLA-DQA2; and CDK1”; in [6] (REACTOME_IMMUNE_SYSTEM, listed as Bez) it was “IFITM3; LILRB4; TRIM9; FCGR1A;; also recorded: FCGR1B; CD274; HLA-DQA2; RAP1GAP;; also recorded: TLR5; C1QA; C1QB; C3; C4BPA;; also recorded: PDCD1LG2; KLHL13; CD80; CDK1”; in [6] (setting [13]), “IFITM3”; in [6] (setting [14]), “FCGR1A; FCGR1B; HLA-DQA2”; in [6] (REACTOME_INTERFERON_SIGNALING), “IFITM3; FCGR1A; FCGR1B, HLA-DQA2”. The “Mean FC Genes In Pathway” value is 0.02 in data set [6] (REACTOME_CYTOKINE_SIGNALING_IN_IMMUNE_SYSTEM); 0.01 in data set [6] (REACTOME_IMMUNE_SYSTEM); 0.03 in [6] (setting [13]); 0.04 in data set [6] (setting [14]); 0.03 in data set [6] (REACTOME_INTERFERON_SIGNALING). Moreover, the “inter-patient variability, AUClast,ss % CV” value in data set [7] worked out at 39%. The “concentration at which mTORC1 and mTORC2 inhibition predominates” value in data set [8] is on record as “less than 200 nmol/L”. The “concentration of dual PI3K/mTOR inhibition” value in data set [9] was “approximately 500 nmol/L”.
Turning to `CO[C@H]1C[C@@H]2CC[C@@H](C)[C@@](O)(O2)C(=O)C(=O)N2CCCC[C@H]2C(=O)O[C@H]([C@H](C)C[C@@H]2CC[C@@H](OCCO)[C@H](OC)C2)CC(=O)[C@H](C)/C=C(\C)[C@@H](O)[C@@H](OC)C(=O)[C@H](C)C[C@H](C)/C=C/C=C/C=C/1C` [RAD001, (1R,9S,12S,15R,16E,18R,19R,21R,23 S,24E,26E,28E,30S,32S,35R)-1,18-dihydroxy-12-{(1R)-2-[(1 S,3R,4R)-4-(2-hydroxyethoxy)-3-methoxycyclohexyl]-1-methylethyl}-19,30-dimethoxy-15,17,21,23,29,35-hexamethyl-11,36-dioxa-4-aza-tricyclo[30.3.1.04,9]hexatriaconta-16,24,26,28-tetraene-2,3,10,14,20-pentaone], the “Number of tooth or gum infections per person for one year after study drug administration” value in data set [10] (RAD001 0.1 mg daily) and in data set [10] (RAD001 0.5 mg daily) was “.02” in each case. Also, the “Percent of subjects with urinary tract infections during one year after study drug administration” value worked out at 10% in data set [11] (RAD001 0.1 mg daily, N = 51) and 11% in [11] (RAD001 0.5 mg daily, N = 46). Also, the “Infection rate/person for one year after study drug administration” value in data set [12] (RAD001 0.1 mg daily for 6 weeks) was 2.0; in data set [12] (RAD001 0.5 mg daily for 6 weeks), 2.1.

Values taken from patent publication US10993940B2, “Methods of enhancing immune response” (NOVARTIS AG, priority 2016, dated 2021).
